# Values joined by “and” are separate entries in the source; they are usually repeats but may differ in a detail not shown here. Equal entries are not always repeated.
# Columns and labels:
# [1] = Pharmacokinetic analysis of serum levels after a single intraperitoneal dose; assay type: in vivo; conditions: ip, mouse, single intraperitoneal dose 30 mg/Kg
# Procedure: All experiments were pre-approved by the University of Melbourne Animal Ethics Committee (Ethics ID: 0911153.1). […] Five different time points were chosen to measure drug level: 15, 30, 60 120 and 240 min after intraperitoneal injection of the recipients. At each time points, treated mice were killed by lethal injection of 0.01 mL/g of Lethobarb® (325 mg pentobarbitone sodium/mL). Following this, blood was collected via intra-cardiac puncture, blood was then allowed to clot at room temperature for 15 min, then centrifuged at 1500 × g for 6 min to separate out the cells and serum. The serum was collected, weighed, snap frozen in dry ice and stored at −80 °C.
# Drug-free mouse serum was used as negative controls. Serum blanks, including calibration standard and quality control samples, were prepared by protein precipitation. Selectivity was evaluated by comparing chromatograms of six blank blood samples from six different sources to make sure there were no significant interfering peaks at retention time of analysis. The maximum serum concentration (Cmax) and the time to reach Cmax (Tmax) were directly obtained from the experimental data. The time needed for 50% reduction in the serum concentration (terminal half-life; T1/2) was calculated from the mean values (n = 5) using GraphPad Prism 8.
# [2] = test system: IL-7R internalization in Ba/F3-IL7R cells; experiment: Colocalization of IL-7R with clathrin and Rab5 after IL-7 stimulation (immunofluorescence); assay type: cell-based, murine; conditions: Ba/F3-IL7R cells after IL-7 stimulation, vs vehicle; result in words
# Procedure: For dynamic analysis of IL-7R internalization, 1 × 10^5 Ba/F3-IL-7R cells were incubated with Phycoerythrin (PE)-conjugated α-CD127 (A7R34, BioLegend) for 30 min on ice, washed twice in cold PBS 1×, resuspended in serum-free Dulbecco’s modified Eagle’s medium (DMEM) and stimulated with 50 ng/mL IL-7 at 37 °C for the indicated intervals. Cells were fixed, permeabilized and incubated with either α-clathrin (ab21679, Abcam Australia) or α-Rab5 (ab18211, Abcam Australia), as previously described. Washed cells were incubated in permeabilization buffer with donkey Alexa Fluor 488-conjugated anti-rabbit secondary antibody (A-21206, Molecular Probes, Life Technologies) for 1 h on ice. Cells were washed, incubated with 1 ng/mL 4′,6-diamidino-2-phenylindole for 15 min, washed twice and mounted using Mowiol mounting medium (81381, Sigma-Aldrich Pty Ltd, Castle Hill, NSW). For each independent experiment, at least 50 different fields of view were collected for blinded quantification, for each time point. All images were acquired using a Nikon A1r Plus SI inverted confocal microscope (Nikon Australia, Rhodes, NSW) using a Plan Apo ×60 oil objective.
# [3] = test system: IL-7R and pStat5 in Lmo2^Tg DN3a cells; experiment: IL-7R internalization assay and pStat5 in Lmo2^Tg DN3a cells after IL-7; assay type: cell-based, mouse; conditions: +IL-7, 0.2 μM Dynole 34-2
# Procedure: Phosphoflow analysis was performed as previously described. Briefly, 2 × 10^6 cells stained for surface markers were subsequently resuspended into PBS 1× + 4% v/v paraformaldehyde and incubated for 10 min at 4 °C for fixation. Fixed cells were washed twice using PBS 1×, then resuspended in pre-chilled at −20 °C Perm Buffer III (BD Pharmingen) and incubated 30 min at 4 °C for permeabilization. Cells were washed twice using PBS 1× and incubated overnight at 4 °C in PBS 1× + 2% v/v fetal calf serum (FCS) with Cell Signalling purified antibodies (Genesearch Pty Ltd, Arundel QLD, Australia) against pSTAT5 (Tyr694; #9359), phospho-p38 MAPK (Thr180/Tyr182; #4511), phospho-p44/42 (Erk1/2; #9102), phospho-S6 (Ser235/236; #4856) and phospho-Akt (Ser473; #9271) or isotype control. […] Fluorescence-activated cell sorting (FACS) analysis was performed using LSRII and LSR Fortessa cytometers, following the gating strategies described in Supplementary Fig. 11. […]
# For in vitro IL-7 stimulation assays, cells were starved in serum-free DMEM at 37 °C, then incubated with either vehicle or Dynole 34-2 or Ruxolitinib (INCB018424; #S1378, Selleckchem), or DAPT (GSI-IX; #S2215, Selleckchem) resuspended in DMSO for 1 h. […] The analysis was performed in triplicate and the mean fluorescence intensity (MFI) observed without stimulation was reported as 100%.
smiles,measurement,setting,value
"CCCCCCCCNC(=O)C(C#N)=Cc1cn(CCCN(C)C)c2ccccc12 [Dynole 34-2, 2-Cyano-N-octyl-3-(1-(3-dimethylaminopropyl)-1H-indol-3-yl)-acrylamide]",Cmax,[1]; read-out: average maximum concentration (Cmax) in serum,> 4 µM
same,half-life,[1]; read-out: estimated half-life in serum,30 min
same,colocalization of IL-7R and clathrin,[2],no significant difference
same,colocalization of IL-7R with Rab5,[2],markedly reduced
same,IL-7R (MFI),[3],14813 MFI and 16581 MFI and 16466 MFI
same,pStat5 (MFI),[3],2583 MFI and 1903 MFI and 3336 MFI and 3007 MFI
